Laboratory results: patent US12343377B2, “Combination therapies comprising a hypomethylation agent for treating cancer” (ALX Oncology Inc., priority 2020, dated 2025)

Tests used:
[1] = system: calreticulin on the surface of MV4-11 cells; assay: Analysis of calreticulin cell-surface expression, MV4-11; assay type: cell-based, human; conditions: for expression of the pro-phagocytic signal calreticulin in the MV411 AML cell line: FIG. 3B
Procedure: (§1) To detect changes in calreticulin expression levels in human acute myeloid leukemia cell lines HL60, OCI-AML3 and MV4-11, cells were incubated with either 2.5 pM or 75 nM of azacitidine (Selleckchem) in complete growth medium (RPMI1640, 10% FBS) in a 37° C. 5% CO2 incubator for 72 hrs. Cells grown in complete growth medium was used as a control for calreticulin baseline expression. After incubation, cells were harvested and washed once in staining buffer (PBS, 2% FBS), stained in PBS with fixable live/dead stain (Invitrogen) for 1 hour at 4° C., washed once in staining buffer and incubated with 500 ng/mL of calreticulin-AF647 (clone 1G6A7, Novus). After a 1 hour incubation at 4° C., cells were washed twice in staining buffer and fixed in 0.5% paraformaldehyde. Cells were analyzed on an Attune (ThermoScientific), and subsequent data analysis using Flowjo 10.6.
(§2) HL60 is a TP53null FLT3 wt cell line; OCI-AML3 is TP53 wt and FLT3 wt; and MV4-11 is TP53 wt and FLT3-ITD.
(§3) The effect of azacitidine or venetoclax on the expression levels of calreticulin on the cell surfaces of MV4-11 and primary AML cells from two different human patients was also tested.

[2] = system: calreticulin on primary AML blasts; assay: Analysis of calreticulin cell-surface expression, primary AML blasts; assay type: cell-based; conditions: two human patients; FIG. 3B
Procedure: as §3

[3] = system: CD47 on the cell surfaces of MV4-11; assay: CD47 cell-surface expression, MV4-11; assay type: cell-based, human; conditions: FIG. 3C
Procedure: (§4) In another set of assays, the effect of azacitidine or venetoclax on the expression levels of CD47 on the cell surfaces of MV4-11 and primary AML cells from two different human patients was tested.

[4] = system: CD47 on primary AML blasts; assay: CD47 cell-surface expression, primary AML blasts; assay type: cell-based; conditions: two human patients; FIG. 3C
Procedure: as §4

[5] = cited from earlier work
[6] = system: HL60-LUC2 acute myeloid leukemic model; assay: Disseminated HL60-LUC2 systemic leukemic model, Drug A and venetoclax; conditions: monotherapy; Drug A 30 mg/kg IP, venetoclax 100 mg/kg oral gavage, Q3D 5 doses; FIG. 8
Procedure: The HL60LUC2 (ATCC) cell line was injected through the tail vein of NOD-SCID female mice at a concentration of 7.5×10^6 cells per in RPMI 1640. Bioluminescence imaging (BLI) acquisition and analysis were performed using the IVIS Spectrum (Perkin Elmer) to monitor tumor growth. Firefly D-luciferin (Regis Technologies) was diluted to 15 mg/ml stock in phosphate-buffered saline and filtered before use. Groups of mice were placed in the specimen chamber and injected with 200 μl of D-luciferin intraperitoneally (IP). BLI whole-body signal was acquired at approximately 10 minutes post injection. BLI flux values were serially monitored twice a week with initial scans acquired three days post inoculation of mice. Living Image Software (Perkin Elmer) was used to quantify BLI average total flux values (photons/second, p/s) following the manual construction of regions of interest over the entire mouse body. […] Drug A-treated mice were dosed by IP injection at 30 mg/kg, five times total at three days apart. Animals were sacrificed when the total flux reached 1E11 or loss in body weight of greater than 20%.
Venetoclax and Drug A therapies were initiated 4 days post engraftment and dosed every 3 days for a total of 5 doses.

[7] = target: MCL-1 (Homo sapiens, UniProt Q07820); conditions: selectivity profile; cited from earlier work
[8] = target: T1, BFL-1 (BCL2A1/A1) (Homo sapiens, UniProt Q16548); conditions: selectivity profile; cited from earlier work
T1 sequence (Q16548 1-175): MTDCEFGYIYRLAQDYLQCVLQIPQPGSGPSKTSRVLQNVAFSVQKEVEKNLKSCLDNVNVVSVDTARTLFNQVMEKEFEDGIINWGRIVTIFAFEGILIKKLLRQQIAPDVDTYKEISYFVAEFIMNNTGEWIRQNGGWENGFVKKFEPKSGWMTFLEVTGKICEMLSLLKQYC

[9] = target: BCL-XL (Homo sapiens, UniProt Q07817); conditions: selectivity profile; cited from earlier work
[10] = system: BCL-XL-dependent cells, such as platelets; conditions: cited from earlier work
[11] = system: HL60 cells; assay: In vitro phagocytosis assay, HL60 cells by human monocyte-derived macrophages; assay type: cell-based; conditions: single agent, compared to untreated cells; FIG. 1A
Procedure: CD14^+ monocytes were purified by negative selection using the Classical Monocytes Isolation Kit, human (Miltenyi Biotec) and LS columns (Miltenyi Biotec) according to the manufacturer's protocol. CD14^+ monocytes were seeded into 150 mm tissue culture dishes (Corning) at 6 million cells per dish in 25 mL medium comprised of RPMI complete media, supplemented with 50 ng/mL M-CSF (Miltenyi Biotec), 10% FBS (Thermo Fisher Scientific), 1% penicillin/streptomycin, and 1% GlutaMAX. Cells were cultured for seven to eleven days.
Target cells, HL60 and OCI-AML3 cells, were washed once in PBS and labeled with the Celltrace CFSE Cell Proliferation kit (Thermo Fisher Scientific) in suspension with 300 nM CFSE (carboxyfluorescein succinimidyl ester) according to the manufacturer's instructions and resuspended in RPMI complete media. Target cells were incubated overnight with two-fold serial dilutions of azacitidine between 39 nM to 2.5 μM in RPMI complete media. Prior to incubation with macrophages, cells were resuspended in RPMI. Macrophages were detached from culture plates by washing once with PBS and incubation in TrypLE Select for 20 minutes at 37° C. […]
Briefly HL60 cells and OCI-AML3 cells (i.e., “target cells”) were labeled with CFSE (carboxyfluorescein succinimidyl ester) and treated with azacitidine (aza) for 48 hours. […] Macrophage cells were pelleted, stained, and analyzed via flow cytometry. […]

[12] = Human PBMC viability assay; assay type: cell-based; conditions: CD11c+ dendritic cells in human PBMC cultures, 1.25 pM azacitidine alone, FIG. 2, read-out: reduction of the viability of CD11c^+ dendritic cells
Procedure: PBMCs were counted and plated in complete RPMI. Drug A alone or in combination azacitidine was added to the PBMCs. Following 72-hour or five day incubation at 37° C., cells were stained with a fixable viability dye followed by staining with cell surface markers: CD3, CD19, CD14, CD56, CD16, CD11c, and HLADR (Biolegend). Cells were processed for flow cytometry by Attune NxT and analyzed by FlowJo 10.3. Viability gating strategy included double singlet exclusion by FSC height and FSC width followed by cell type surface marker then viability gate. CD11c DCs were identified as lineage negative (CD3, CD19, CD14, CD16 and CD56) HLADR^+ CD11c^+. Percent viable cells were tabulated using GraphPad Prism 8.
Dendritic cells (DCs) are antigen-presenting cells (also known as accessory cells) of the mammalian immune system. They are believed to act as messengers between the innate and the adaptive immune systems.

[13] = system: calreticulin on the surface of HL60 cells; assay: Analysis of calreticulin cell-surface expression, HL60; assay type: cell-based, human; conditions: with increased concentrations of azacitidine, 72 hrs; FIG. 3A
Procedure: as §1, §2

[14] = system: calreticulin on the surface of OCI-AML3 cells; assay: Analysis of calreticulin cell-surface expression, OCI-AML3; assay type: cell-based, human; conditions: with increased concentrations of azacitidine, 72 hrs; FIG. 3A
Procedure: as §1, §2

[15] = system: HL60 tumor xenografts; assay: Subcutaneous HL60 leukemia xenograft model; assay type: in vivo, mice
Procedure: (§5) Tumors were monitored until average size of all tumors reached 105 mm^3 for HL60, 75 mm^3 for MV4-11 and 112 mm^3 for OCI-AML3. […] Mice in HL60 and OCI-AML3 tumor models were dosed intraperitoneally (IP) five times, three days apart at 5 mg/kg for azacitidine, and six times, three days apart at 10 mg/kg for Drug A. MV4-11 tumor bearing mice were dosed IP three times per week at 5 mg/kg for azacitidine and 10 mg/kg for Drug A. Tumors were measured in two dimensions with calipers and tumor volume was calculated as: length×width×width×0.5, where length was the larger of the two measurements. Animals were sacrificed when tumor reached a volume of ˜2000 mm^3.
(§6) In this Example, the anti-tumor activity of Drug A in combination with azacitidine (aza) was assessed mice bearing either HL60, OCI-AML3 and MV4-11 human leukemia tumor xenografts. (See Example 1 for experimental details.) HL60 is a TP53null FLT3 wt cell line; OCI-AML3 is TP53 wt and FLT3 wt; and MV4-11 is TP53 wt and FLT3-ITD.
(§7) Mice bearing HL60 xenografted tumors were randomized to 4 groups of 4-5 mice each. One group of mice was given (a) Drug A at 10 mg/kg IP (Q3D, 6 doses total), (b) aza at 5 mg/kg IP (Q3D, 5 doses total), (c) both Drug A and aza (at the doses and administration schedule for each single agent), or (d) vehicle. Mice bearing OCI-AML3 xenografts were similarly randomized and treated. […]

[16] = system: OCI-AML3 tumor xenografts; assay: Subcutaneous OCI-AML3 leukemia xenograft model; assay type: in vivo, mice; conditions: day 20, Drug A 10 mg/kg IP Q3D 6 doses, aza 5 mg/kg IP Q3D 5 doses
Procedure: as §5, §6, §7

[17] = system: MV4-11 tumor xenografts; assay: Subcutaneous MV4-11 leukemia xenograft model; assay type: in vivo, mice; conditions: day 26, Drug A 10 mg/kg and aza 5 mg/kg IP three times per week
Procedure: as §5, §6
Mice bearing MV4-11 xenografts were randomized into 4 groups of 9-10 each. One group of mice was given Drug A at 10 mg/kg IP (3 times per week), the second group of mice was given aza at 5 mg/kg IP (three times per week), the third group was given both Drug A and aza (at the doses and administration schedule for each single agent, and the fourth group was given vehicle. […]

[18] = system: HL60-LUC2 acute myeloid leukemic model; assay: Disseminated HL60-LUC2 systemic leukemic model, Drug A and azacitidine; assay type: in vivo, mice
Procedure: After transplantation of HL60-LUC2 cells by intravenous tail injection into immunodeficient NSG mice (7.5E6 cells/animal), engraftment was confirmed by bioluminescence imaging and mice were randomized into 4 groups (10 mice/group). Treatment was performed as shown Table A below.
Treatment was continued until mice received 14 doses of single agent Drug A, single agent azacitidine, or Drug A in combination with azacitidine.

Chain of BCL-XL (Q07817 whole entry, species assumed): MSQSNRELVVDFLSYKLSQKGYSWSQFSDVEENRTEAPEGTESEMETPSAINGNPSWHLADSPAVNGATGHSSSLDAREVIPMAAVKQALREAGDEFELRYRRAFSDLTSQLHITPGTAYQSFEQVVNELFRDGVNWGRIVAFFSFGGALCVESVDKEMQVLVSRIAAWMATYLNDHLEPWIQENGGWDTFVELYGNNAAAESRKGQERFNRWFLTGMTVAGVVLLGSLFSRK
Chain of MCL-1 (Q07820 whole entry, species assumed): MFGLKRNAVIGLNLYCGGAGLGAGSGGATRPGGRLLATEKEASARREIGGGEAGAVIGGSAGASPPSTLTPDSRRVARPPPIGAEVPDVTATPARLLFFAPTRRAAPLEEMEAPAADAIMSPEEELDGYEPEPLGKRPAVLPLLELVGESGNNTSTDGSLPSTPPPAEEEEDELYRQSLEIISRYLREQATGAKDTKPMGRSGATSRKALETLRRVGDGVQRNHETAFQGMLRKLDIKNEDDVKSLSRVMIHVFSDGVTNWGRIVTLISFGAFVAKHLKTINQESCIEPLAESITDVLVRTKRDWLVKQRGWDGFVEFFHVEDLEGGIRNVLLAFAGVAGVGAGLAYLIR

Question: With `CC1(C)CCC(CN2CCN(c3ccc(C(=O)NS(=O)(=O)c4ccc(NCC5CCOCC5)c([N+](=O)[O-])c4)c(Oc4cnc5[nH]ccc5c4)c3)CC2)=C(c2ccc(Cl)cc2)C1` [venetoclax, 4-(4-{[2-(4-chlorophenyl)-4,4dimethylcyclohex-1-en-1-yl]methyl}piperazin-1-yl)-N-({3-nitro-4-[(tetrahydro-2H-pyran-4ylmethyl)amino]phenyl}sulfonyl)-2-(1H-pyrrolo[2,3-b]pyridin-5-yloxy)benzamide] as the compound, how does the “expression of the pro-phagocytic signal calreticulin in the MV411 AML cell line” value [1] read?
Answer: increase

Question: What about the “expression of the pro-phagocytic signal calreticulin in primary AML blasts” value [2] of the same compound?
Answer: increase

Question: What about the “expression of the anti-phagocytic signal CD47 in the MV411 AML cell line” value [3] of the same compound?
Answer: increase

Question: What about the “expression of the anti-phagocytic signal CD47 in primary AML blasts” value [4] of the same compound?
Answer: increase

Question: What about the aqueous solubility [5] of the same compound?
Answer: very low

Question: And the tumor growth [6]?
Answer: moderate tumor growth inhibition

Question: With `O=C(c1cc(-c2cc3c(cc2C(=O)N2Cc4ccccc4C[C@H]2CN2CCOCC2)OCO3)n2c1CCCC2)N(c1ccccc1)c1ccc(O)cc1` [Drug S55746, (S)—N-(4-hydroxyphenyl)-3-(6-(3-(morpholinomethyl)-1,2,3,4-tetrahydroisoquinoline-2-carbonyl)benzo[d][1,3]dioxol-5-yl)-N-phenyl-5,6,7,8-tetrahydroindolizine-1-carboxamide] as the compound, how does the “binding to MCL-1” value [7] read?
Answer: no significant binding

Question: What about the “binding to BFL-1 (BCL2A1/A1)” value [8] of the same compound?
Answer: no significant binding

Question: And the “affinity for BCL-XL” value [9]?
Answer: poor affinity

Question: What about the “cytotoxic activity on BCL-XL-dependent cells, such as platelets” value [10] of the same compound?
Answer: no cytotoxic activity

Question: For `Nc1ncn([C@@H]2O[C@H](CO)[C@@H](O)[C@H]2O)c(=O)n1` [azacitidine, 4-amino-1-[(2R,3R,4S,5R)-3,4-dihydroxy-5-(hydroxymethyl)oxolan-2-yl]-1,3,5-triazin-2-one], which “macrophage-mediated phagocytosis of HL60 cells” value [11] is on record?
Answer: stimulated macrophage-mediated phagocytosis of HL60 cells slightly

Question: What about the cytotoxicity at 1.25 pM [12] of the same compound?
Answer: ~40%

Question: What about the “expression of calreticulin on the surface of HL60 cells” value [13] of the same compound?
Answer: increased

Question: And the “expression of calreticulin on the surface of OCI-AML3 cells” value [14]?
Answer: increased

Question: And the “expression of the pro-phagocytic signal calreticulin in the MV411 AML cell line” value [1]?
Answer: increase

Question: And the “expression of calreticulin on the surface of MV4-11 cells” value ([1]; with increased concentrations of azacitidine, 72 hrs, FIG. 3A)?
Answer: increased

Question: What about the “expression of the pro-phagocytic signal calreticulin in primary AML blasts” value [2] of the same compound?
Answer: increase

Question: And the “expression of the anti-phagocytic signal CD47 in the MV411 AML cell line” value [3]?
Answer: increase

Question: And the “expression of the anti-phagocytic signal CD47 in primary AML blasts” value [4]?
Answer: increase

Question: And the HL60 tumor growth ([15]; day 20, compared to vehicle control, FIG. 4A)?
Answer: minimally inhibited

Question: What about the “% tumor growth inhibition (TGI)” value ([15]; day 20, HL60, Drug A 10 mg/kg IP Q3D 6 doses, aza 5 mg/kg IP Q3D 5 doses) of the same compound?
Answer: 42%

Question: What about the “% tumor growth inhibition (TGI)” value [16] of the same compound?
Answer: 33%

Question: And the “% tumor growth inhibition (TGI)” value [17]?
Answer: 49%

Question: What about the tumor growth ([18]; 14 doses, Drug A 30 mg/kg, azacitidine 5 mg/kg, FIG. 5C) of the same compound?
Answer: moderate tumor growth inhibition

Question: And the “Day by which all mice succumbed” value ([18]; second set of experiments, single agent, Q3D 14 doses, FIG. 5D)?
Answer: ~85 days
